Assay results reported in US20100239655A1, “TAURINE-BASED COMPOSITIONS AND THERAPEUTIC METHODS” (priority 2004, published 2010).

System: normal human epidermal keratinocytes
Assay: Protection of keratinocytes from ultraviolet induced cell death (apoptosis)
Assay type: cell-based
Conditions: even at micromolar concentrations
From the text: This effect is independent from and in addition to, the skin barrier repair and hydrating effects taurine exerts on dermal cells.

`NCCS(=O)(=O)O` [taurine, Taurine] was tested. Which “protection from ultraviolet induced cell death (apoptosis)” value did it give?
The value was “can protect”.
